Test results reported in patent publication US20080119434A1, “Sir2a-based therapeutic and prophylactic methods” (The Trustees of Colubia University, priority 2001, published 2008).
Like-named read-outs stand apart in the source and are kept apart here. Non-standard residues stand in square brackets, D forms with d. Residues, ends and D or L forms follow the SMILES beside them. Nle = CCCC[C@H](N)C(=O)O

Experiments:
[1] = system: acetylated p53 in H460 cells; assay: Acetylation levels of endogenous p53 in H460 cells during DNA damage response (western blot); format: cell-based, human; settings: for acetylation level of p53, agent added to etoposide and TSA: etoposide + TSA + agent vs etoposide + TSA, nicotinamide 5 mM
Procedure: FIG. 3. […] 2.5 μg of ^14C-labeled acetylated p53 (lane 1) was incubated with 10 ng of purified Sir2α and 50 μM NAD alone (lane 2), or in the presence of either 5 mM of nicotinamide (lane 3) or 3 mM of 3-AB (3-aminobenzamide) (lane 4) for 60 min at 30° C. The proteins were analyzed by resolution on SDS-PAGE and autoradiography (upper) or Coomassie blue staining (lower). […] The cell extracts from untreated cells (lane 1), or treated with ALLN (50 μM) were also included (lane 6).
After treatment, the cells were harvested for western blot analysis. The rabbit polyclonal antibody specific for p300-mediated acetylated p53-[α-p53(Ac)-C] was raised and purified against the acetylated human p53 C-terminal peptide [p53 (Ac)-C: H-S55GQSTSRH55LMF-OH (5=acetylated Lysine)] as described before (Luo et al., 2000). In the case of cotransfection assays testing for p53 acetylation levels, H1299 cells were transfected with 5 μg of CMV-p53 plasmid DNA, 5 μg of CMV-p300 plasmid DNA, and 10 μg of pcDNA3—Sir2α plasmid DNA as indicated. […] The cell extracts were resolved by either 8% or 4-20% SDS-PAGE gels (Novex) and analyzed by western blot with α-p53(Ac)-C and α-p53(DO-1).

IMR-90 cells [2] = assay: DNA damage-induced cell death by adriamycin in IMR-90 cells; format: cell-based, human; settings: pBabe-hSIRT1-363Y infected vs mock infected IMR-90 cells, different concentrations of adriamycin, 48 hr
Procedure: (§2) Both mock infected cells and pBabe-hSIRT1-363Y infected cells were either not treated (I and III) or treated with 50 μM H2O2 (II and IV) (E), or treated with different concentrations of adriamycin as indicated. 48 hr later, the cells were collected for analysis (D).
(§3) IMR-90 cells were infected with either a pBabe retrovirus empty vector or a pBabe retrovirus containing hSIRT1-363Y, and cultured for a week under pharmacological selection.

Sir2α = biological target: T1, Sir2α (Mus musculus, UniProt Q923E4); assay: In vitro p53 deacetylation assay with purified Flag-tagged Sir2α; format: biochemical; settings: 10 ng Sir2α, 50 μM NAD, 60 min at 30° C.; TSA 500 nM, nicotinamide 5 mM, 3-AB 3 mM
T1 construct: To construct Sir2α expression constructs, the full-length cDNA was subcloned from pET28a-Sir2α; Flag (N); made in house
T1 sequence (Q923E4 1-737): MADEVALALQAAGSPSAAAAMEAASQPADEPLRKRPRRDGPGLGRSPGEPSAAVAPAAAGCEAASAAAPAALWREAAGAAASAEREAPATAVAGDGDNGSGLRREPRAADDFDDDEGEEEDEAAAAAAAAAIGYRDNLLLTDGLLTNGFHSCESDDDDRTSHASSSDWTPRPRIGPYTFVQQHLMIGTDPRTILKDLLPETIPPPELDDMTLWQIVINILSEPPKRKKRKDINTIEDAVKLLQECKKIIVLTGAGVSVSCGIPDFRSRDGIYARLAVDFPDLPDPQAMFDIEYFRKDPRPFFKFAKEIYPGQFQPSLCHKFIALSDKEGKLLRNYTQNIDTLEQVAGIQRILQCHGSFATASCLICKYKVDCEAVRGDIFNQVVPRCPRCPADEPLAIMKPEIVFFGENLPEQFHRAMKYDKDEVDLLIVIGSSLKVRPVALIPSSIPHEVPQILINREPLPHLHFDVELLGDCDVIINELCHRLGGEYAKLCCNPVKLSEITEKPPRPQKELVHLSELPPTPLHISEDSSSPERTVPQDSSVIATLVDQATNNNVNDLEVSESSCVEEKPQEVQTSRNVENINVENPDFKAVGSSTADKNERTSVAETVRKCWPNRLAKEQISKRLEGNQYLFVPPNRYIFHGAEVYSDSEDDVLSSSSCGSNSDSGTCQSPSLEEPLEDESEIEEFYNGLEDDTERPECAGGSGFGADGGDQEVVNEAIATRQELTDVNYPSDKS
Procedure: FIG. 2. TSA-insensitive deacetylation of p53 by mammalian Sir2α. (A) Colloidal blue staining of a SDS-PAGE gel containing protein Marker (lane 1), a control eluate from M2 loaded with untransfected cell extract (lane 2), and 100 ng of the highly purified Flag-tagged Sir2α recombinant protein (lane 3). (B) Deacetylation of p53 by Sir2α. […] NAD (50 μM) was also added in each reaction except lane 2. The proteins were analyzed by resolution on SDS-PAGE and autoradiography (upper) or Coomassie blue staining (lower). (C) Reduction of the steady-state levels of acetylated p53 by both mouse Sir2α and human SIRT1 expression. Western blot analysis of H1299 cell extracts from the cells cotransfected with p53 and p300 (lane 1), or in combination with Sir2α (lane 2), or in combination with hSIRT1 (lane 4), or Sir2α-355A (lane 3), or hSIRT1-363Y (lane 5), or hSIRT5 (lane 6), or PARP (lane 7) by acetylated p53-specific antibody (upper) or DO-1 for total p53 (lower). The highly conserved histidine residue at the core domain was replaced by alanine for mouse Sir2α (a.a. 355) Sir2α-355A), or replaced by tyrosine for human SIRT1 (a.a. 363) (hSIRT1-363Y). […] The acetylated p53 levels in the cells cotransfected with p53 and p300 (lanes 1, 3), or cotransfected with p53, p300 and Sir2α (lanes 2, 4).
FIG. 3. Abrogation of mammalian Sir2α mediated deacetylation of p53 by nicotinamide. (A) Sir2α-mediated deacetylation of p53 is inhibited by nicotinamide. […] The proteins were analyzed by resolution on SDS-PAGE and autoradiography (upper) or Coomassie blue staining (lower). […]
The Flag-tagged Sir2α cells were established and expanded in DMEM medium, and cell extracts were prepared essentially as previously described (Luo et al., 2000; Gu et al., 1999). […] The eluted proteins were resolved by a SDS-PAGE gel and analyzed by colloidal blue staining (Novex). […] The reactions were resolved on SDS-PAGE and analyzed by Coomassie blue staining and autoradiography.

[3] = system: Sir2α-mediated deacetylation of endogenous p53 in MEF p53(+/+) cells; assay: Sir2α-mediated deacetylation of endogenous p53 in pBabe-Sir2α infected MEF p53(+/+) cells (western blot); format: cell-based, mouse; settings: etoposide and TSA in combination with nicotinamide, 6 hr
Procedure: FIG. 3. Abrogation of mammalian Sir2α mediated deacetylation of p53 by nicotinamide. (A) Sir2α-mediated deacetylation of p53 is inhibited by nicotinamide. 2.5 μg of ^14C-labeled acetylated p53 (lane 1) was incubated with 10 ng of purified Sir2α and 50 μM NAD alone (lane 2), or in the presence of either 5 mM of nicotinamide (lane 3) or 3 mM of 3-AB (3-aminobenzamide) (lane 4) for 60 min at 30° C. The proteins were analyzed by resolution on SDS-PAGE and autoradiography (upper) or Coomassie blue staining (lower). (B) Enhancement of endogenous p53 acetylation levels by nicotinamide. […] (C) The Sir2α-mediated deacetylation of endogenous p53 was abrogated in the presence of nicotinamide. […] The cell extracts from untreated cells (lane 1), or treated with ALLN (50 μM) were also included (lane 6).
Furthermore, we examined the effect of Sir2α expression on endogenous levels of acetylated p53. […] We first examined the protein levels of p53 activation in response to DNA damage in these cells by western blot analysis.
(§1) After treatment, the cells were harvested for western blot analysis. […] The cell extracts were resolved by either 8% or 4-20% SDS-PAGE gels (Novex) and analyzed by western blot with α-p53(Ac)-C and α-p53(DO-1).

IMR-90 cells [4] = system: IMR-90 cells
Procedure: The cells were analyzed for apoptotic cells (subG1) according to DNA content (PI staining). […] Cells were either not treated (I) or treated with 100 μM H2O2 (II, III, IV) for 24 hr. […] Both mock infected cells and pBabe-Sir2α infected cells were either not treated (I and III) or treated with 200 μM H2O2 (II and IV). 24 hr later, the cells were photographed under a microscope.
as §2
IMR-90 cells were infected with either a pBabe retrovirus empty vector or a pBabe retrovirus containing Sir2α, and cultured for a week under pharmacological selection.
as §3
After one-week selection, the cells were either frozen for stock or immediately used for further analysis.

[5] = system: acetylated p53 in H1299 cells; assay: Acetylated p53 levels in H1299 cells cotransfected with p53 and p300 (western blot); format: cell-based, human; settings: H1299 cells cotransfected with p53 and p300, 500 nM TSA vs not treated
Procedure: FIG. 2. TSA-insensitive deacetylation of p53 by mammalian Sir2α. (A) Colloidal blue staining of a SDS-PAGE gel containing protein Marker (lane 1), a control eluate from M2 loaded with untransfected cell extract (lane 2), and 100 ng of the highly purified Flag-tagged Sir2α recombinant protein (lane 3). (B) Deacetylation of p53 by Sir2α. […] NAD (50 μM) was also added in each reaction except lane 2. The proteins were analyzed by resolution on SDS-PAGE and autoradiography (upper) or Coomassie blue staining (lower). (C) Reduction of the steady-state levels of acetylated p53 by both mouse Sir2α and human SIRT1 expression. Western blot analysis of H1299 cell extracts from the cells cotransfected with p53 and p300 (lane 1), or in combination with Sir2α (lane 2), or in combination with hSIRT1 (lane 4), or Sir2α-355A (lane 3), or hSIRT1-363Y (lane 5), or hSIRT5 (lane 6), or PARP (lane 7) by acetylated p53-specific antibody (upper) or DO-1 for total p53 (lower). The highly conserved histidine residue at the core domain was replaced by alanine for mouse Sir2α (a.a. 355) Sir2α-355A), or replaced by tyrosine for human SIRT1 (a.a. 363) (hSIRT1-363Y). […]
as §1

## CCCC[C@@H](C=O)NC(=O)[C@H](CC(C)C)NC(=O)[C@H](CC(C)C)NC(C)=O [ALLN] (Ac-Leu-Leu-[Nle]-aldehyde)
[1]; 6 hr, etoposide 20 μM, ALLN 50 μM
  acetylation of p53, single agent vs untreated cells: no significant p53 acetylation was detected

## COc1cccc2c1C(=O)c1c(O)c3c(c(O)c1C2=O)C[C@@](O)(C(=O)CO)C[C@@H]3O[C@H]1C[C@H](N)[C@H](O)[C@H](C)O1 [adriamycin]
IMR-90 cells [2]
  sensitivity to DNA damage-induced cell death: much more sensitive

## NC(=O)c1cccnc1 [nicotinamide]
Sir2α
  effect on Sir2α-mediated deacetylation of 14C-labeled acetylated p53: completely inhibited
[1]; 6 hr
  acetylation level of p53, agent added to etoposide and TSA: super induction
[1]; etoposide plus nicotinamide vs etoposide alone
  cellular levels of acetylated p53 induced by DNA damage: enhanced
[3]
  effect on Sir2α-mediated deacetylation of endogenous p53: completely abrogated

## OO [H2O2, hydrogen peroxide]
IMR-90 cells [4]; mock (pBabe-vector) infected IMR-90 cells, 200 μM H2O2, 24 hr
  cells being killed: more than 80%
IMR-90 cells [4]; mock infected IMR-90 cells, 50 μM H2O2
  susceptibility to H2O2-induced cell death: relatively resistant
IMR-90 cells [4]; pBabe-Sir2α infected IMR-90 cells, 200 μM H2O2, 24 hr
  cells surviving: about 70%
IMR-90 cells [4]; pBabe-hSIRT1-363Y infected IMR-90 cells, 50 μM H2O2
  cells surviving: less than 30%

## CC(/C=C/C(=O)NO)=C\[C@@H](C)C(=O)c1ccc(N(C)C)cc1 [TSA, Trichostatin A]
Sir2α
  effect on Sir2α-mediated deacetylation of 14C-labeled acetylated p53: no apparent effect
[1]; 6 hr, etoposide plus TSA (0.5 μM) vs etoposide alone
  acetylation level of p53 during DNA damage response, agent added to etoposide: mild enhancement
[5]
  steady state level of acetylated p53: elevated

## NC(=O)c1cccc(N)c1 [3-AB, 3-aminobenzamide]
Sir2α
  effect on Sir2α-mediated deacetylation of 14C-labeled acetylated p53: no significant effect
[1]; 6 hr
  acetylation level of p53, agent added to etoposide and TSA: no effect
